According to PMC2928168, “Na^+-stimulated ATPase of alkaliphilic halotolerant cyanobacterium Aphanothece halophytica translocates Na^+ into proteoliposomes via Na^+ uniport mechanism” (BMC Biochemistry, 2010):

Test system: T1, Na+-stimulated ATPase (likely F1F0-ATPase)
T1 construct: gene atpD
Test: inorganic phosphate release, Lineweaver-Burk plot
Type: biochemical, Aphanothece halophytica
Conditions: 20 mM Tris-HCl pH 7.6, 5 mM MgCl2, 10 mM NaCl; detergent-solubilised enzyme; read-out: apparent Km

Km: 1200 µM
Structure (SMILES): Nc1ncnc2c1ncn2[C@@H]1O[C@H](COP(=O)(O)OP(=O)(O)OP(=O)(O)O)[C@@H](O)[C@H]1O [ATP]
